Laboratory results as given in US6818619B2, “Chimeric natriuretic peptides” (Mayo Foundation for Medical Education and Research, priority 1999, dated 2004).
Where “and” joins values, the source holds several entries; their conditions need not be identical. Equal entries are not always repeated.

Tested on: normal rats
Test: Cardiorenal actions of bolus ANP, CNP, VNP in anesthetized normal rats
Format: in vivo, rat
[1] = normal rats, Recovery (after 30 minute washout)

vasonatrin peptide [VNP] was tested, and the HR heart rate (rat, in vivo) was 393 ± 20 beats/minute and 408 ± 25 beats/minute and 390 ± 20 beats/minute and the “MAP mean arterial pressure” value (rat, in vivo) was 93 ± 15 mmHg and 79 ± 15*+ mmHg and 93 ± 15*¶ mmHg.
With “C-type natriuretic peptide (GLSKGCFGLKLDRIGSMSGLGC) [CNP]” the HR heart rate (rat, in vivo) was 363 ± 19 beats/minute and 365 ± 19 beats/minute and 363 ± 16 beats/minute and the “MAP mean arterial pressure” value (rat, in vivo) was 100 ± 12 mmHg and 87 ± 9*+ mmHg and 104 ± 11*¶ mmHg.
In the case of CC[C@H](C)[C@@H]1NC(=O)[C@H](CCCNC(=N)N)NC(=O)[C@H](CC(=O)O)NC(=O)[C@H](CCSC)NC(=O)[C@H](CCCNC(=N)N)NC(=O)CNC(=O)CNC(=O)[C@H](Cc2ccccc2)NC(=O)[C@@H](NC(=O)[C@H](CO)NC(=O)[C@H](CO)NC(=O)[C@H](CCCNC(=N)N)NC(=O)[C@H](CCCNC(=N)N)NC(=O)[C@H](CC(C)C)NC(=O)[C@@H](N)CO)CSSC[C@@H](C(=O)N[C@@H](CC(N)=O)C(=O)N[C@@H](CO)C(=O)N[C@@H](Cc2ccccc2)C(=O)N[C@@H](CCCNC(=N)N)C(=O)N[C@@H](Cc2ccc(O)cc2)C(=O)O)NC(=O)CNC(=O)[C@H](CC(C)C)NC(=O)CNC(=O)[C@H](CO)NC(=O)[C@H](CCC(N)=O)NC(=O)[C@H](C)NC(=O)CNC1=O [ANP, Atrial natriuretic peptide], the HR heart rate (normal rats, 5 μg/kg bolus) is reported as 353 ± 14 beats/minute, the “MAP mean arterial pressure” value (normal rats, 5 μg/kg bolus) is reported as 97 ± 12 mmHg and the “RAP right atrial pressure” value (normal rats, 5 μg/kg bolus) is reported as −2.3 ± 0.8 mmHg. The “UKV urine potassium excretion” value (normal rats, 5 μg/kg bolus) was 10.3 ± 3.5 µmol/min, the “UNaV urine sodium excretion” value (normal rats, 5 μg/kg bolus) was 13.2 ± 3.5 µmol/min and the UV urine volume (normal rats, 5 μg/kg bolus) was 79 ± 10 µL/min. The “UcGMPV urine cGMP volume” value (normal rats, 5 μg/kg bolus) was 605 ± 151 pmol/min, the HR heart rate (normal rats, 50 μg/kg bolus) was 355 ± 19 beats/minute and the “MAP mean arterial pressure” value (normal rats, 50 μg/kg bolus) was 69 ± 7*+ mmHg. The “RAP right atrial pressure” value (normal rats, 50 μg/kg bolus) was −3.8 ± 0.8*+ mmHg, the “UKV urine potassium excretion” value (normal rats, 50 μg/kg bolus) was 24.4 ± 8.7 µmol/min and the “UNaV urine sodium excretion” value (normal rats, 50 μg/kg bolus) was 68.2 ± 15.7*+ μmol/minute. For the same compound, the UV urine volume (normal rats, 50 μg/kg bolus) was 341 ± 41*+ μl/minute, the “UcGMPV urine cGMP volume” value (normal rats, 50 μg/kg bolus) was 2580 ± 505*+ pmol/minute and the HR heart rate [1] was 368 ± 23 beats/minute. For the same compound, the “MAP mean arterial pressure” value [1] was 92 ± 11*¶ mmHg, the “PcGMP plasma cGMP” value [1] was 3.2 − 63¶ pmol/ml and the “RAP right atrial pressure” value [1] was −0.8 ± 0.9¶ mmHg. For the same compound, the “UKV urine potassium excretion” value [1] was 2.4 ± 0.1 µmol/min, the “UNaV urine sodium excretion” value [1] was 8.9 ± 3.5¶ μmol/minute and the UV urine volume [1] was 48 ± 14¶ μl/minute. The “UcGMPV urine cGMP volume” value [1] was 105 ± 63¶ pmol/minute.
